Where two headings read alike, the source gives them in different places.
Assays:
Black nightshade (SOLNI) = test: adjuvant for glyphosate test on black nightshade; assay type: in vivo; settings: where named, 0.25% w/v, 14 DAT; for Fresh Weight SOLNI: IPA-glyphosate 0.6 mM (20.3 g ae/ha at 200 L/ha); for Relative weight SOLNI (%): untreated plant = 100%, IPA-glyphosate 0.6 mM
Description: (§1) Wheat plants were used as a model for difficult to wet grasses and black nightshade was used as a model for a plant with an easy to wet but difficult to permeate leaf surface.
(§2) After emergence, the wheat seedlings were thinned to six plants per pot for the efficacy experiments. Black nightshade seedlings were thinned to one plant per pot. Black nightshade and wheat were treated at the four- and the three-leaf stage, respectively. The fresh weights of the plants were measured 14 days after treatment (14 DAT; black nightshade) or 21 days after treatment (21 DAT; wheat).
(§3) Demineralized water was used as the carrier. […] Based on previous work, these rates were 20.3 g ae/ha (equivalent to 0.6 mM) on black nightshade and 77.8 g ae/ha (equivalent to 2.3 mM at 200 L/ha) on wheat (ae=acid equivalent).
(§4) The fresh weight of the untreated plant was taken as a reference (100%). […] An industrial standard was also included in the test series.

winter wheat (cv. Ilias) = test: adjuvant for glyphosate test on wheat; assay type: in vivo; settings: where named, 0.25% w/v, 21 DAT; for Fresh Weight WHEAT: IPA-glyphosate 2.3 mM (77.8 g ae/ha at 200 L/ha); for Relative weight WHEAT (%): untreated plant = 100%, IPA-glyphosate 2.3 mM
Description: as §1, §2, §3, §4

[1] = Manometric Respirometry Test (biodegradability); settings: after 28 days
Description: Biodegradability test of N,N-bis(3-(dimethylamino) propyl)-octanamide was tested in a Manometric Respirometry Test according to Commission Regulation 440/2008/EC, Method C.4-D of May 30, 2008: Manometric Respirometry Test (EEC Publication N° L142/496, May 2008).
The percentage of biodegradation was 65% after 28 days.

[2] = solubility / miscibility in water and dodecane; assay type: physicochemical
Description: R1 is preferably an aliphatic group, in particular a fatty chain, having 5-13 carbon atoms (i.e. a C5 to C13 carbon chain), preferably 5-9 carbon atoms. This embodiment is especially advantageous when the amide is a diamine of formula (I). […] This is not only the case when one or more of the R2, R3, R4 and R5 groups are ethanol and/or tertiary propanol groups, but also when these groups are alkyl groups, in particular C1 to C3 alkyl groups. The R2, R3, R4 and R5 groups are preferably methyl groups. The corresponding DMAPA amides, on the other hand, show only poor water solubility.
Furthermore, they can be used efficiently in highly concentrated (so-called ‘high load’) agrochemical compositions to prevent phase separation to occur. The amphiphilic behaviour of the bisDMAPA amides is further illustrated in example 4.

[3] = compatibility of diquats with anionic surfactant in water; assay type: physicochemical; parameters: key: Cl. = Clear; Blu. = Bluish; Visc. = Viscous; Prec. = Precipitate; Turb. = Turbid; settings: 1 wt % total surfactant in water, ambient temperature; for Compatibility observation, 100% of Diquat: 100% diquat; for Compatibility observation, 10% of Diquat / Compatibility observation, 20% of Diquat / Compatibility observation, 30% of Diquat / Compatibility observation, 40% of Diquat / Compatibility observation, 50% of Diquat / Compatibility observation, 60% of Diquat / Compatibility observation, 70% of Diquat / Compatibility observation, 80% of Diquat / Compatibility observation, 90% of Diquat: mixture with Sodium Laureth Sulfate; for Compatibility observation, 10% of Diquat: 10% diquat; for Compatibility observation, 20% of Diquat: 20% diquat; for Compatibility observation, 30% of Diquat: 30% diquat; for Compatibility observation, 40% of Diquat: 40% diquat; for Compatibility observation, 50% of Diquat: 50% diquat; for Compatibility observation, 60% of Diquat: 60% diquat; for Compatibility observation, 70% of Diquat: 70% diquat; for Compatibility observation, 80% of Diquat: 80% diquat; for Compatibility observation, 90% of Diquat: 90% diquat
Description: To delimit the applicability of the Diquats the compatibility in different ratios with LES was tested in the temperature range between 0° C. and 90° C. […] With a hydrocarbon tail of up to 10 carbon atoms no precipitation was observed and with increasing chain length only a very narrow region of mixing ratios led to an insoluble deposit.

[4] = solubility temperatures of 1 wt % solutions; assay type: physicochemical
[5] = system: common lambsquarter (Chenopodium album L.; CHEAL); test: adjuvant for Carfentrazon-ethyl test; assay type: in vivo; settings: Spotlight Plus, 7 DAT
Description: In this test we looked at the performance with Carfentrazone-ethyl (Spotlight Plus from FMC) on common lambsquarter (Chenopodium album L.; CHEAL).
After emergence, the seedlings were thinned to two plants per pot for the efficacy experiments. The common lambsquarters were treated at the four-leaf stage. The fresh weights of the plants were measured 7 days after treatment (7 DAT).
The following herbicide was used in the treatment solutions: Carfentrazone-ethyl, Spotlight Plus (FMC) ME formulation, 60 g a.i./L.
Demineralized water was used as the carrier.

[6] = 20° C., cited from earlier work

SMILES | Compatibility observation, 100% of Diquat [3] | Compatibility observation, 10% of Diquat [3] | Compatibility observation, 20% of Diquat [3] | Compatibility observation, 30% of Diquat [3] | Compatibility observation, 40% of Diquat [3] | Compatibility observation, 50% of Diquat [3] | Compatibility observation, 60% of Diquat [3] | Compatibility observation, 70% of Diquat [3] | Compatibility observation, 80% of Diquat [3] | Compatibility observation, 90% of Diquat [3] | further results
CCCCCCCCCCCCCCCCCC(=O)N(CCC[N+](C)(C)C)CCC[N+](C)(C)C.[Cl-].[Cl-] [R2, R3, R4, R5, R6 = —CH3 R1 = —C17H35] | – | – | – | – | – | – | – | – | – | – | Fresh Weight SOLNI (Black nightshade (SOLNI)): 2.8 g; Relative weight SOLNI (%) (Black nightshade (SOLNI)): 24.0%; Fresh Weight WHEAT (winter wheat (cv. Ilias)): 14.7 g; Relative weight WHEAT (%) (winter wheat (cv. Ilias)): 83.5%
CCCCCCCC(=O)N(CCCN(C)C)CCCN(C)C [N,N-bis(3-(dimethylamino)propyl)octanamide] | – | – | – | – | – | – | – | – | – | – | Fresh Weight SOLNI (Black nightshade (SOLNI)): 1.6 g; Relative weight SOLNI (%) (Black nightshade (SOLNI)): 14.1%; biodegradability classification [1]: Readily Biodegradable; percentage of biodegradation [1]: 65%; Fresh Weight WHEAT (winter wheat (cv. Ilias)): 2.3 g; Relative weight WHEAT (%) (winter wheat (cv. Ilias)): 13.0%; solubility in dodecane [2]: completely soluble; solubility in water [2]: completely soluble
CC(C)N.O=C(O)CNCP(=O)(O)O [IPA-glyphosate, reference compound] | – | – | – | – | – | – | – | – | – | – | Fresh Weight SOLNI (Black nightshade (SOLNI)): 6.4 g; Relative weight SOLNI (%) (Black nightshade (SOLNI)): 55.2%; Fresh Weight WHEAT (winter wheat (cv. Ilias)): 12.6 g; Relative weight WHEAT (%) (winter wheat (cv. Ilias)): 71.7%
CCCCCCCC(=O)N(CCC[N+](C)(C)C)CCC[N+](C)(C)C.[Cl-].[Cl-] [C8MeCl] | Cl. | Cl. | Cl. | Cl. | Cl. | Cl. | Cl. | Cl. | Cl. | Cl. | –
CCCCCCCCCCCCCCCC[N+](C)(C)C.[Br-] [CTAB, Cetrimonium bromide] | – | – | – | – | – | – | – | – | – | – | Solubility temperatures [° C.] 1 wt % [4]: 25 °C
CCCCCCCCCCCC(=O)N(CCC[N+](C)(C)C)CCC[N+](C)(C)C.[Cl-].[Cl-] [C12MeCl] | Cl. | Cl. | Cl. | Cl. | Blu. | Cl. | Cl. | Cl. | Cl. | Cl. | –
CCCCCCCC[N+](C)(C)CCCN(CCC[N+](C)(C)CCCCCCCC)C(=O)CCCCCCC.[Br-].[Br-] [C8OcBr] | Cl. | Cl. | Cl. | Blu. | Blu. | Turb. | Turb. | Turb. | Cl. | Cl. | –
CCOC(=O)C(Cl)Cc1cc(-n2nc(C)n(C(F)F)c2=O)c(F)cc1Cl (stereo not shown) [Carfentrazone-ethyl] | – | – | – | – | – | – | – | – | – | – | Fresh Weight CHEAL (g) Herbicide + Adjuvant ([5]; sub-optimal rate + N,N-bis(3-(dimethylamino)propyl)octanamide 0.25% (w/v)): 0.7 g; Fresh weight CHEAL (g) Only herbicide ([5]; sub-optimal rate, no adjuvant, average of four replicates): 4.9 g; log Kow ([6]; no pH given): 3.4
COc1cc(OC)nc(NC(=O)NS(=O)(=O)c2ncccc2C(=O)N(C)C)n1 [Nicosulfuron] | – | – | – | – | – | – | – | – | – | – | log Kow ([6]; at pH 7): 0
CCCCCCCCCCCC[N+](C)(C)C.[Br-] [DTAB, Dodecyl Trimethyl Ammonium Bromide] | – | – | – | – | – | – | – | – | – | – | Solubility temperatures [° C.] 1 wt % [4]: <0 °C
CC(C)N1C(=O)c2ccccc2NS1(=O)=O [Bentazone] | – | – | – | – | – | – | – | – | – | – | log Kow ([6]; at pH 7): −0.5
CCNc1nc(Cl)nc(NC(C)C)n1 [Atrazine] | – | – | – | – | – | – | – | – | – | – | log Kow ([6]; no pH given): 2.6
CCCCCCCC(=O)N(CCC[N+](C)(C)Cc1ccccc1)CCC[N+](C)(C)Cc1ccccc1.[Br-].[Br-] [C8BnBr] | Cl. | Cl. | Cl. | Cl. | Prec. | Prec. | Prec. | Prec. | Prec. | Prec. | –
CCCCCCCCCCCC(=O)[O-].[Na+] [NaC12, Sodium Laurate] | – | – | – | – | – | – | – | – | – | – | Solubility temperatures [° C.] 1 wt % [4]: 25 °C
CCCCCCCCCCCC(=O)N(CCC[N+](C)(C)C)CCC[N+](C)(C)C.[Cl-].[Cl-] [R2, R3, R4, R5, R6 = —CH3 R1 = —C11H23] | – | – | – | – | – | – | – | – | – | – | Fresh Weight SOLNI (Black nightshade (SOLNI)): 5.8 g; Relative weight SOLNI (%) (Black nightshade (SOLNI)): 50.0%; Fresh Weight WHEAT (winter wheat (cv. Ilias)): 14.8 g; Relative weight WHEAT (%) (winter wheat (cv. Ilias)): 83.8%
CCCCCCCCCCCCCCCC(=O)N(CCC[N+](C)(C)C)CCC[N+](C)(C)C.[Cl-].[Cl-] [C16MeCl] | Cl. | Cl. | Cl. | Visc. | Prec. | Cl. | Cl. | Cl. | Cl. | Cl. | –
CCCCCCCCCC(=O)N(CCC[N+](C)(C)C)CCC[N+](C)(C)C.[Cl-].[Cl-] [C10MeCl] | Cl. | Cl. | Cl. | Cl. | Cl. | Turb. | Cl. | Cl. | Cl. | Cl. | –
CCCCCCCCCCCCCCCCCC(=O)N(CCC[N+](C)(C)C)CCC[N+](C)(C)C.[Cl-].[Cl-] [C18MeCl] | Cl. | Cl. | Cl. | Cl. | Turb. | Visc. | Cl. | Cl. | Cl. | Cl. | –
CCCCCCCCCCCCCC(=O)N(CCC[N+](C)(C)C)CCC[N+](C)(C)C.[Cl-].[Cl-] [C14MeCl] | Cl. | Cl. | Cl. | Cl. | Prec. | Cl. | Cl. | Cl. | Cl. | Cl. | –
